From patent publication US5436254A, “Carbostyril derivatives” (Otsuka Pharmaceutical Company, Ltd., priority 1989, dated 1995)

Columns and labels:
V1 receptor = V1 receptor (Rattus norvegicus, UniProt P30560); test: biochemical; assay type: binding
[1] = system: increase of diastolic pressure caused by Arg-vasopressin; test: Anti-vasopressor activity in vivo (pith rat, increase of diastolic pressure by Arg-vasopressin); set-up: species or system male SD rat; details: iv, read-out: ED50 (dose required to reduce the increase of diastolic pressure caused by Arg-vasopressin to 50 % of its control value)

Sequence of V1 receptor (P30560 whole entry): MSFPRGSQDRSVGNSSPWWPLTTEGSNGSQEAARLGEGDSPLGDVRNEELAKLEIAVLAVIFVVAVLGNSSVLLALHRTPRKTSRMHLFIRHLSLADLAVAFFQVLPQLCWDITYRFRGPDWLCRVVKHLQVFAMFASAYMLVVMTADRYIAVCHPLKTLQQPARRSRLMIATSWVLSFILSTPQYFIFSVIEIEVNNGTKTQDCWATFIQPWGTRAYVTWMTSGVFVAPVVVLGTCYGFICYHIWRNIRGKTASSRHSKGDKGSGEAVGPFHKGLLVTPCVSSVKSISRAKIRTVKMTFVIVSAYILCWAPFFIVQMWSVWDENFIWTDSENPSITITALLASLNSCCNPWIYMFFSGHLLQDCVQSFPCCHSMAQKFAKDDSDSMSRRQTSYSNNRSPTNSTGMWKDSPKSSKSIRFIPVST

Compound `COc1ccc(C(=O)N2CCC(N3C(=O)CCc4ccccc43)CC2)c(OC)c1` [Example 47, 1-[1-(2,4-Dimethoxybenzoyl)-4-piperidinyl]-3,4-dihydrocarbostyril] has an IC50 (V1 receptor) of 100 nM and an ED50 [1] of 0.4 mg/kg.

For `O=C(c1ccc(OCCCCC(O)CN2CCCCC2)cc1)N1CCC(N2C(=O)CCc3ccccc32)CC1` (stereo not shown) [Example 303, 1-{1-[4-(5-Hydroxy-6-(1-piperidinyl)hexyloxy)benzoyl]-4-piperidinyl}-3,4-dihydrocarbostyril], the IC50 (V1 receptor) was 38 nM.

`O=C(c1ccc(OCCCCC(O)CN2CCC(Cc3ccccc3)CC2)cc1)N1CCC(N2C(=O)CCc3ccccc32)CC1` (stereo not shown) [Example 304, 1-{1-(4-[5-Hydroxy-6-(4-benzyl-1-piperidinyl)hexyloxy]benzoyl]-piperidinyl}-3,4-dihydrocarbostyril] showed an IC50 (V1 receptor) of 37 nM.

`CCN(CC)CC(CCCCOc1ccc(C(=O)N2CCC(N3C(=O)CCc4ccccc43)CC2)cc1)OC(C)=O` (stereo not shown) [Example 305, 1-{1-[4-(5-Acetoxy-6-diethylaminohexyloxy)benzoyl]-4-piperidinyl)-3,4-dihydrocarbostyril] was tested, and the IC50 (V1 receptor) was 65 nM.

`CCOc1ccc(C(=O)N2CCC(N3C(=O)CCc4c(F)cccc43)CC2)c(OC)c1` [Example 306, 5-Fluoro-1-[1-(2-methoxy-4-ethoxybenzoyl)-4-piperidinyl}-3,4-dihydrocarbostyril] gave an IC50 (V1 receptor) of 84 nM.

Compound `CCN(CC)CCCCCCOc1ccc(C(=O)N2CCC(N3C(=O)CCc4c(C)cccc43)CC2)cc1` [Example 307, 5-Methyl-1-{1-[4-(6-diethylaminohexyloxy)benzoyl]-4-piperidinyl}-3,4-dihydrocarbostyril] has an IC50 (V1 receptor) of 23 nM.

`CCOc1ccc(C(=O)N2CCC(N3C(=O)CCc4c(O)cccc43)CC2)c(OC)c1` [Example 308, 5-Hydroxy-1-[1-(2-methoxy-4-ethoxybenzoyl)-4-piperidinyl}-3,4-dihydrocarbostyril] gave an IC50 (V1 receptor) of 95 nM.

In the case of `CCOc1ccc(C(=O)N2CCC(N3C(=O)CCc4c(OC(C)=O)cccc43)CC2)c(OC)c1` [Example 309, 5-Acetoxy-1-[1-(2-Methoxy-4-ethoxybenzoyl)-4-piperidinyl]-3,4-dihydrocarbostyril], the IC50 (V1 receptor) is reported as 73 nM.

`CS(=O)(=O)NCC(=O)NCCCCCOc1ccc(C(=O)N2CCC(N3C(=O)CCc4ccccc43)CC2)cc1` [Example 310, 1-{1-(4-[5-(2-Methanesulfonylaminoacetylamino)pentyloxy]benzoyl)-4-piperidinyl]-3,4-dihydrocarbostyril] showed an IC50 (V1 receptor) of 160 nM.
